Experimental findings from patent publication US6518296B1, “Substituted 3-thiocarbamoylpyrazoles” (Bayer Aktiengesellschaft, priority 1998, dated 2003) are described below.

In data set [1] the test system is green peach aphid (Myzus persicae). The experiment in a line: Myzus test. In kind it is in vivo. The following applies: active compound concentration of 0.1%; after 6 days; dipped cabbage leaves. Here is the method:
Solvent: 7 parts by weight of dimethylformamide
Emulsifier: 1 part by weight of alkylaryl polyglycol ether
To produce a suitable preparation of active compound, 1 part by weight of active compound is mixed with the stated amounts of solvent and emulsifier, and the concentrate is diluted with water to the desired concentration.
Cabbage leaves (Brassica oleracea) which are heavily infested by the green peach aphid (Mycus persicae) are treated by being dipped into the preparation of active compound of the desired concentration.
After the desired period of time, the kill in % is determined. 100% means that all aphids have been killed; 0% means that none of the aphids have been killed.

Data set [2] concerns Boophilus microplus resistant/SP-resistant Parkhurst strain. Put plainly: Test with Boophilus microplus resistant/SP-resistant Parkhurst strain (injection, inhibition of oviposition). Type of data set: in vivo. The settings on record: 20 μg/animal; injected into the abdomen; after 7 days. Here is the method: Test with Boophilus microplus resistantlSP-resistant Parkhurst strain
(§1) Test animals: Adult females which have sucked themselves full
(§2) Solvent: Dimethyl sulphoxide
20 mg of active compound are dissolved in 1 ml of dimethyl sulphoxide, while dilute concentrations are prepared by dilution with the same solvent.
The test is carried out in 5 replications. […] of the solutions is injected into the abdomen, the animals are transferred into dishes and kept in a climatized room. After 7 days, the activity control is carried out for inhibition of ovi position. An activity of 100% means that none of the ticks has deposited eggs.

The test system of the next data set is Lucilia cuprina larvae. Put plainly: Blowfly larvae test/development-inhibitory action. In kind it is in vivo. The settings on record: active compound concentration of 100 ppm, read-out: activity (development-inhibitory action; 100% means that no flies have hatched). Here is the method: Blowfly larvae test/development-inhibitory action
Test animals: Lucilia cuprina larvae
as §2
(§3) 20 mg of active compound are dissolved in 1 ml of dimethyl sulphoxide, while dilute concentrations are prepared by dilution with dist. H2O.
About 20 Lucilia cuprina larvae are introduced into a test tube containing about 1 cm^3 of horse meat and 0.5 ml of the preparation of active compound. After 24 and 48 hours, the activity of the preparation of active compound is determined. The test tubes are transferred into beakers whose bottom is covered with sand. After a further 2 days, the test tubes are removed and the pupae are counted.
The activity of the active compound preparation is assessed by the number of flies which have hatched after 1.5 times the development time of an untreated control. 100% means that no flies have hatched; 0% means that all flies have hatched normally.

The subject of data set [3] is Boophilus microplus resistant/SP-resistant Parkhurst strain. Put plainly: Test with Boophilus microplus resistant/SP-resistant Parkhurst strain (dip test, kill). In kind it is in vivo. The settings on record: active compound concentration of 100 ppm; dipped for 1 minute. Here is the method: Test with Boophilus microplus resistant/SP-resistant Parkhurst strain
as §1, §2, §3
10 adult Boophilus microplus res. are dipped for 1 minute into the preparation of active compound to be tested. The animals are transferred into plastic beakers and kept in a climatized room, and the kill rate is then determined.
100% means that all ticks have been killed; 0% means that none of the ticks have been killed.

The compound `CCSc1c(C(N)=S)nn(-c2c(Cl)cc(C(F)(F)F)cc2Cl)c1N` [Preparation Example 1, 5-amino-4-ethylthio-l-(2,6-dichloro-4-trifluoro-methylphenyl)-3-thiocarbamoyl-pyrazole] yielded a melting point of 101 °C. In addition, the kill in data set [1] was 90%. Besides, the “activity (inhibition of oviposition)” value in data set [2] was determined as 100%. Moreover, the inhibition at 100 ppm with Lucilia cuprina larvae is 100%. Moreover, the “activity (kill rate of ticks)” value in data set [3] was 100%.

For orientation: melting point means the temperature, or range, at which the solid turns liquid.
